Publication PMC9266914, “Broad Spectrum Functional Activity of Structurally Related Monoanionic Au(III) Bis(Dithiolene) Complexes” (International Journal of Molecular Sciences, 2022)
Read-outs that look alike come from different tables or passages of the source.

How the values were obtained:
[1] = tested on: A2780 ovarian cancer cells; experiment: MTT cytotoxicity assay in A2780 (cisplatin sensitive) ovarian cancer cells; format: cell-based, human; details: 24 h incubation, read-out: IC50 A2780, 24 h
Experimental: (§1) Cells were exposed to increasing concentrations of the complexes (0.01–100 μM) for 24 and/or 48 h, at 37 °C. The IC50 values were calculated from dose–response curves using the colorimetric MTT assay. […] Most complexes presented a similar cytotoxicity profile compared to Auranofin, but higher activity compared to Cisplatin, and, most importantly, were active in the Cisplatin-resistant OVCAR8 cells (Table 2).
(§2) The cytotoxic activity of the complexes was evaluated in the A2780 (cisplatin sensitive) (Sigma-Aldrich) and OVCAR8 (cisplatin resistant) (ATCC) ovarian cancer cells. Cells were grown in RPMI-1640 medium (Gibco, Thermo Fisher) supplemented with 10% fetal bovine serum (FBS) and were maintained at 37 °C in a humidified atmosphere with 5% CO2. The complexes were initially dissolved in DMSO and then in culture medium to prepare serial dilutions in the range 10^−9–10^−4 M. After 24 and/or 48 h incubation the cellular viability was measured by the colorimetric MTT assay, as previously described.

[2] = tested on: OVCAR8 ovarian cancer cells; experiment: MTT cytotoxicity assay in OVCAR8 (cisplatin resistant) ovarian cancer cells; format: cell-based, human; details: 48 h incubation
Experimental: as §1, §2

ΦX174 supercoiled DNA = experiment: Electrophoretic mobility of supercoiled DNA; format: binding; details: 24 h, 37 °C, in words
Experimental: The potential interaction of the complexes with DNA was evaluated through the assessment of the electrophoretic mobility of supercoiled ϕX174 DNA, using a previously described method. To that end, a mixture was prepared containing 200 ng of supercoiled ϕX174 DNA (Promega) in 10 mM of phosphate buffer (pH 7.2) and increasing concentrations of Cisplatin, as a positive control, or the metal complexes (in a total volume of 20 μL). The mixture was incubated for 24 h at 37 °C, in the dark. As controls, samples having non-incubated plasmid and plasmid incubated with DMSO were also prepared. Then, all samples were prepared for electrophoresis through the addition of 2 μL of 10× DNA loading buffer (Applichem) and loading on an 0.8% agarose gel in TBE buffer (Thermo Fisher Scientific, Waltham, MA, USA). The gel was run at 90 V for approximately 3 h, stained using a 3× GelRed® (Biotium) solution in H2O, and the bands visualized using an AlphaImagerEP (Alpha Innotech) under UV light.

[3] = tested on: A2780 ovarian cancer cells; parameters: method as in PMID 32391537; details: MTT, starred values, cited from earlier work
[4] = biological target: human serum albumin (HSA) (Homo sapiens, UniProt P02768); parameters: method as in PMID 26469679, PMID 22835721, PMID 32283915, doi:10.1016/j.jlumin.2011.06.005; details: cited from earlier work
S. aureus Newman = tested on: S. aureus Newman; parameters: method as in PMID 32391537; details: complexes starred as Complex 1 / Complex 2; cited from earlier work
E. coli ATCC25922 = tested on: E. coli ATCC25922; parameters: method as in PMID 32391537; details: complexes starred as Complex 1 / Complex 2; cited from earlier work
C. albicans SC5134 = tested on: C. albicans SC5134; parameters: method as in PMID 32391537; details: complexes starred as Complex 1 / Complex 2; cited from earlier work
C. glabrata CBS138 = tested on: C. glabrata CBS138; parameters: method as in PMID 32391537; details: complexes starred as Complex 1 / Complex 2; cited from earlier work
[5] = 48 h incubation, read-out: IC50 A2780, 48 h

Sequence of human serum albumin (HSA) (P02768 25-609): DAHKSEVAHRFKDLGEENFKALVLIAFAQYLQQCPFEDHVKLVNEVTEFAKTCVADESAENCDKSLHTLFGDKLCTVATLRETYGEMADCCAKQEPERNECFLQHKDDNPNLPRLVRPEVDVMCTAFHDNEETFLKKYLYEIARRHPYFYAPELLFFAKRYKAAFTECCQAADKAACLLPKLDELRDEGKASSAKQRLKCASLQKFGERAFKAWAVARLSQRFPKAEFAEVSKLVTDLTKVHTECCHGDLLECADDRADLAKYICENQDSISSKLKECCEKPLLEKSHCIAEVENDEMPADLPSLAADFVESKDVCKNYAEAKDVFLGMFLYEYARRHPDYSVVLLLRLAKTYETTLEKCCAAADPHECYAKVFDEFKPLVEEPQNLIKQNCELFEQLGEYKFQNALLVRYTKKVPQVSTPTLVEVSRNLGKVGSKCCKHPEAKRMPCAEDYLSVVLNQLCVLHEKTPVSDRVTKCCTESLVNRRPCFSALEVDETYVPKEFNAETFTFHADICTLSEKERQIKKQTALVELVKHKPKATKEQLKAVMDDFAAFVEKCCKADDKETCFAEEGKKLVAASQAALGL

| SMILES | IC50 [1] [µM] | IC50 [2] [µM] | conformational changes / electrophoretic mobility of DNA (ΦX174 supercoiled DNA) | IC50 [3, 5] [µM] | binding constant to HSA [4] | IC50 ([3]; 24 h incubation, read-out: IC50 A2780, 24 h) [µM] | MIC S. aureus Newman (S. aureus Newman) [µg/mL] | MIC E. coli ATCC25922 (E. coli ATCC25922) [µg/mL] | MIC C. albicans SC5134 (C. albicans SC5134) [µg/mL] | MIC C. glabrata CBS138 (C. glabrata CBS138) [µg/mL] |
| --- | --- | --- | --- | --- | --- | --- | --- | --- | --- | --- |
| N.N.[Cl][Pt][Cl] [Cisplatin, reference compound] | 21.1 ± 5 | 10.1 ± 2.3 | able to alter the electrophoretic mobility of the nicked and supercoiled forms of DNA in a dose-dependent way | 3.6 ± 1.25 | 10^2 M^−1 |  |  |  |  |  |
| CC[N+](CC)(CC)CC.CCn1c2c(sc1=S)[S][Au-]1([S]c3sc(=S)n(CC)c3[S]1)[S]2 [[N][AuSEt(=S)]] |  | 3.76 ± 0.71 |  | 1.3 ± 0.32 |  | 4.23 ± 0.8 | 12.1 ± 3.9 | >125 | 19.9 ± 2.4 | 9.7 ± 2.7 |
